Publication PMC8569681, “New Pyrimidine and Pyridine Derivatives as Multitarget Cholinesterase Inhibitors: Design, Synthesis, and In Vitro and In Cellulo Evaluation” (ACS Chemical Neuroscience, 2021)
Entries after “also recorded” stand apart in the source; their conditions may differ.

Legend:
[1] = target: T1, Electrophorus electricus AChE (EeAChE) (Electrophorus electricus, UniProt O42275); assay: biochemical; settings: 100 μM acetylthiocholine; read-out: EeAChE, IC50 ± SE
T1 construct: purchased Sigma-Aldrich (Milan, Italy)
Description: The recorded data were analyzed with the enzyme kinetic module of SigmaPlot. All measurements were replicated three times, and the IC50 value obtained was confirmed by repeating the experiment twice.
For this purpose, eight different inhibitor solutions were prepared. […] The recorded data were analyzed by the enzyme kinetic module of SigmaPlot plotting the percentages of inhibition as a function of the different concentrations of the inhibitor, expressed in logarithmic scale, to obtain the sigmoid graph, from which it was possible to determine the IC50 value of the tested compound. The IC50 was confirmed by repeating the experiment twice.

[2] = Antioxidant activity, DPPH spectrophotometric method; settings: for antioxidant activity (reaction with DPPH): DPPH about 25 μM, antioxidant 60 μM; for reaction time (time for reaching the plateau): DPPH, absorbance at 515 nm
Description: The antioxidant activity assays were carried out according to the 2,2-diphenyl-1-picrylhydrazyl (DPPH) spectrophotometric method.[34] Initially, to assess whether the compounds had antioxidant activity and to define the time required by each antioxidant to reach the steady state, the reduction in absorbance over time at 515 nm of a solution of DPPH mixed with the tested compound was recorded until reaching the plateau. […] The value of EC50 can be extrapolated by plotting the percentage of residual DPPH at the steady state as a function of the molar ratio of the antioxidant to initial DPPH.
2,2-Diphenyl-1-picrylhydrazyl (DPPH), MeOH, and ascorbic acid, used as the reference standard, were purchased from Sigma-Aldrich. Micropipettes Labmate (BRAND Dig. 10–100 μL; Dig. 100–1000 μL) and Transferpette (HIGH TECH LAB LM200: 20–200 μL; LM5000: 1000–5000 μL) were used to collect the samples. The assays were carried out by a double beam UV–vis Lambda 40 Perkin Elmer spectrophotometer using optical polystyrene cuvettes (10 × 10 × 45 mm, 340–800 nm optical transparency); each measure was repeated at least in triplicate. For data processing, UV-WIN Lab version 2.0 (Perkin Elmer Corporation) was used. The antioxidant activity of the tested compounds was evaluated by the DPPH method[34] based on the ability of antioxidant compounds to react with the stable radical DPPH, which has a maximum absorption at about 515 nm. Thus, by measuring the decrease in absorbance over time of DPPH solutions to which increasing amounts of the tested compound are added, the antioxidant activity of the compound can be determined.
[…]. To 2.90 mL of MeOH, 60 μL of a DPPH solution in MeOH (∼1.2 mM) and 40 μL of an antioxidant solution in MeOH (4.5 mM) were added to have in the cuvette concentrations of DPPH equal to about 25 μM and of antioxidant equal to 60 μM. The exact DPPH concentration was calculated through the Lambert–Beer relation, known the extinction coefficient of DPPH at 515 nm, equal to 1.25 × 10^4.[34] The absorbance was recorded until the plateau was reached.
. To obtain the initial DPPH concentration, 2.94 mL of MeOH and 60 μL of the DPPH solution in MeOH (∼1.2 mM) were placed in a polystyrene cuvette and the absorbance was recorded at 515 nm. The exact initial DPPH concentration was calculated through the Lambert–Beer relation. For subsequent measurements, the cuvettes were set up by introducing the opportune volume of MeOH to reach a total volume of 3 mL, 60 μL of the DPPH solution in MeOH (∼1.2 mM, to have a final concentration of ∼25 μM), and the appropriate volumes of the antioxidant stock solution in MeOH to have final concentrations between 1.5 and 12 μM for 20 and between 5 and 60 μM for 18 and 30; the absorbance was recorded at 515 nm at the plateau and then after 1 min for compound 20 and after 90 min for compounds 18 and 30. Each measure was repeated four times. With absorbance data, the percentages of residual DPPH at steady state were obtained using the following equation: [drawing 3] where Ac is the average of absorbance in the presence of antioxidant at plateau and A0 is the average of the initial absorbance of DPPH.
The same procedure was performed using ascorbic acid as the antioxidant at cuvette concentrations between 1.5 and 18 μM, recording the absorbance at 515 nm after 2 min from the preparation of the cuvettes.

U-87 MG cell line = assay: Cytotoxicity, MTT cell viability assay; settings: 24 h
Description: Data represent the absorbance % (± SD) relative to untreated cells in the same experiment and standardized to 100%. All data points were performed in triplicate and at least three independent experiments.
After an incubation time of 24 h, the medium was replaced by a new fresh medium containing 0.5 mg/mL MTT (Sigma, Deisenhofen, Germany). After 2 h at 37 °C in 5% CO2, unreacted dye was removed and cells were dissolved by DMSO (Merck, Darmstadt, Germany). Absorbance was read at 570 nm by a microtiter spectrophotometer plate reader. The data were expressed as absorbance relative to untreated cells in the same experiment and standardized to 100%. All data points were performed in triplicate and at least three independent experiments.

T1 sequence (O42275 24-633): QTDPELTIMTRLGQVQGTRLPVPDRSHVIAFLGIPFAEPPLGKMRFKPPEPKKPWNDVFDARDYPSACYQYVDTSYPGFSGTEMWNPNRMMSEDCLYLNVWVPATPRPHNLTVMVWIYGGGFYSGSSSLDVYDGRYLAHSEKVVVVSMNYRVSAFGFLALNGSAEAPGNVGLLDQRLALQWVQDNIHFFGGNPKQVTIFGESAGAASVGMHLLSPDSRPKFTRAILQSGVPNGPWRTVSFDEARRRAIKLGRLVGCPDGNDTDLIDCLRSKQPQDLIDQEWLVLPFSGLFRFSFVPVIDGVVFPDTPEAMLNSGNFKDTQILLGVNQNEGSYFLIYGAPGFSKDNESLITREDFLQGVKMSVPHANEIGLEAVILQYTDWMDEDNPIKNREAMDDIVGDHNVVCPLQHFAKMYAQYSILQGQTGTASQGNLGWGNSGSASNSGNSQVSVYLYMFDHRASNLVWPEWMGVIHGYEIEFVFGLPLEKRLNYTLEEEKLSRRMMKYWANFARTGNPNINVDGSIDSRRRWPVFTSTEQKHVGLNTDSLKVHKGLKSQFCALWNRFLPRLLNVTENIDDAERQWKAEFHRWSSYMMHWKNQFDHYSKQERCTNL

Row | SMILES | IC50 [1] | antioxidant activity (reaction with DPPH) [2] | reaction time (time for reaching the plateau) [2] | cytotoxicity on U-87 MG cells (U-87 MG cell line; concentrations up to 10 μM) | cytotoxic effect on U-87 MG cells (U-87 MG cell line; 1 to 50 μM)
1 | Oc1cccc(CNCCCCCCNc2ncccn2)c1O [Compound 20, 3-(((6-(Pyrimidin-2-ylamino)hexyl)amino)methyl)benzene-1,2-diol] | 0.622 µM | antioxidant properties; also recorded: showed antioxidant activity; also recorded: possess antioxidant activity; also recorded: most efficient antioxidant | 1 min | not cytotoxic | 
2 | COc1cc(CNCCCCCCNc2ncccn2)ccc1O [Compound 18, 2-Methoxy-4-(((6-(pyrimidin-2-ylamino)hexyl)amino)methyl)phenol] |  | antioxidant properties; also recorded: showed antioxidant activity; also recorded: possess antioxidant activity | 90 min |  | 
3 | COc1cc(CNCCCCCCNc2ccccn2)ccc1O [Compound 30, 2-Methoxy-4-(((6-(pyridin-2-ylamino)hexyl)amino)methyl)phenol] |  | antioxidant properties; also recorded: showed antioxidant activity; also recorded: possess antioxidant activity | 90 min |  | 
4 | c1cnc(NCCCCCCNCc2c[nH]c3ccccc23)nc1 [Compound 22, N^1-((1H-Indol-3-yl)methyl)-N^6-(pyrimidin-2-yl)hexane-1,6-diamine] |  |  |  |  | more pronounced cytotoxic effect
5 | Oc1cccc(CNCCCCCCNc2ncccn2)c1 [Compound 19, 3-(((6-(Pyrimidin-2-ylamino)hexyl)amino)methyl)phenol] |  | did not show a significant ability to interact with DPPH; also recorded: no significant antioxidant capacity |  |  | 
